From the supplement of paper PMC10307832

Legend:
Assay in all cases: relative viability (nuclei count vs DMSO), 5 days (fraction); higher = more cells survive
[1] = compound: CCC1=CN=CN=C1N2CCN(CC2)CC3=NC4=C(N3)C=C(C=C4)C(F)(F)F + CC(=O)Nc1cccc(-n2c(=O)n(C3CC3)c(=O)c3c(Nc4ccc(I)cc4F)n(C)c(=O)c(C)c32)c1 [Trametinib] (partner 0.02 µM)
Procedure, shortened: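 Lung cancer cell lines in 1536-well plates got either a single drug or a fixed anchor-drug dose together with five library-drug doses (not always all listed) in √10 steps, by pin tool, on the day after seeding. Nuclei were counted after 5 days, and relative viability is the treated-to-vehicle ratio of nuclei counts. Values are medians of duplicate plates.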

[2] = compound: CCC1=CN=CN=C1N2CCN(CC2)CC3=NC4=C(N3)C=C(C=C4)C(F)(F)F
Procedure, shortened: (§1)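 Five library-drug doses, separated by factors of √10, were pinned into 1536-well plates holding lung cancer cell lines after an overnight stay at 37 °C. Cells were fixed, permeabilised and Hoechst-stained in one step after 5 days without medium change, then imaged at 4×. Viability compares treated-well with vehicle-well nuclei, counted in MetaXpress, as a median across plates. Passing plates had control CV below 25% and at least one doubling.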

[3] = compound: N=C1NC(=O)/C(=C/c2ccc(O)cc2)S1 [Mirin]
Procedure, shortened: as §1

[4] = compound: CCn1c(-c2nonc2N)nc2cnc(Oc3cccc(NC(=O)c4ccc(OCCN5CCOCC5)cc4)c3)cc21
Procedure, shortened: as §1

Row | Cell Line | relative viability ([1]; first compound 0.04 µM) | relative viability ([1]; first compound 0.1265 µM) | relative viability ([1]; first compound 0.4 µM) | relative viability ([1]; first compound 1.265 µM) | relative viability ([1]; first compound 4 µM) | relative viability ([2]; 0.04 µM) | relative viability ([2]; 0.1265 µM) | relative viability ([2]; 0.4 µM) | relative viability ([2]; 4 µM) | relative viability ([3]; 0.25 µM) | relative viability ([3]; 0.7906 µM) | relative viability ([3]; 2.5 µM) | relative viability ([3]; 7.906 µM) | relative viability ([3]; 25 µM) | relative viability ([4]; 0.04 µM) | relative viability ([4]; 0.1265 µM) | relative viability ([4]; 0.4 µM) | relative viability ([4]; 1.265 µM) | relative viability ([4]; 4 µM) | relative viability ([2]; 1.265 µM)
1 | HCC-366 | 0.344 | 0.372 | 0.349 | 0.285 | 0.269 | 1 | 0.979 | 0.988 | 1.05 | 1.03 | 0.868 | 0.982 | 1.03 | 0.947 | 1.01 | 1.03 | 0.836 | 0.0886 | 0.098 | –
2 | NCI-H2405 | 0.676 | 0.666 | 0.624 | – | 0.68 | 0.968 | 0.989 | 0.981 | 1.11 | 0.967 | 0.928 | 0.974 | 0.968 | 0.997 | 1.05 | 0.668 | 0.254 | 0.318 | 0.327 | –
3 | NCI-H1648 | 0.555 | – | – | 0.391 | 0.519 | 0.916 | 0.664 | – | 0.611 | 1.04 | 0.726 | 1.09 | 0.552 | 0.709 | 1.27 | 1.34 | 0.982 | 1.35 | 0.875 | 1.1
4 | LXF-289 | 0.709 | 0.696 | 0.659 | 0.684 | 0.67 | 1.1 | 0.944 | 0.953 | 0.99 | 0.997 | 1.1 | 0.999 | 1.06 | 1.13 | 1.07 | 1.12 | 0.965 | 0.858 | 0.762 | 1.05
5 | NCI-H1793 | 0.459 | 0.4 | 0.397 | 0.362 | 0.349 | 0.894 | 0.796 | 0.702 | 0.796 | 1.1 | – | 0.987 | 0.914 | 0.826 | 0.897 | 0.838 | 0.526 | 0.587 | 0.483 | –
6 | LU99A | 0.558 | 0.57 | 0.505 | 0.481 | 0.578 | 1.14 | 0.904 | 0.902 | 0.92 | 0.997 | 0.783 | 0.922 | 0.864 | 0.857 | 1.02 | 0.694 | 0.67 | 0.536 | 0.504 | 0.821
7 | PC-3 [JPC-3] | – | 0.632 | 0.671 | 0.634 | 0.682 | 1.01 | 0.947 | 0.965 | 1.02 | 1.07 | 1.04 | 1.01 | 1.12 | 1.2 | 1.02 | 0.976 | 0.982 | 0.947 | 0.926 | 1.01
8 | NCI-H2085 | 0.456 | 0.369 | 0.401 | 0.43 | 0.491 | 0.896 | 0.912 | 0.949 | 0.972 | 0.981 | 0.979 | 1.01 | 0.957 | 0.99 | 1.09 | 0.919 | 0.826 | 0.778 | 0.765 | 0.918
9 | NCI-H2170 | 0.946 | 0.911 | 0.873 | 0.777 | 0.851 | 0.946 | 0.97 | 0.953 | 0.946 | 1.05 | 0.89 | 0.985 | 0.946 | 0.933 | 0.95 | 0.953 | 0.919 | 0.732 | 0.754 | 0.848
10 | HCC-78 | 0.843 | 0.712 | 0.628 | 0.577 | 0.562 | 0.875 | 0.894 | 0.888 | 0.756 | 0.887 | 0.838 | 1.11 | 0.894 | 1.09 | 1.2 | 1.08 | 0.75 | 0.955 | 1.16 | 0.746
11 | NCI-H1395 | 1.05 | 0.993 | 1.11 | – | 0.96 | 0.837 | 0.86 | 0.943 | 0.892 | 0.948 | – | 0.964 | 0.925 | 0.841 | 1.13 | 0.837 | 0.769 | 0.469 | 0.563 | 0.769
12 | NCI-H2228 | – | 0.471 | 0.397 | 0.221 | 0.586 | 1 | 0.858 | 0.99 | 0.98 | 1.09 | 0.89 | 0.969 | 0.886 | 1.02 | 1.26 | 0.964 | 0.908 | 0.919 | 0.881 | 0.928
13 | H3255 | 0.639 | 0.583 | 0.572 | 0.522 | 0.599 | 0.97 | 0.95 | 0.913 | 0.919 | 0.982 | 0.962 | 0.992 | 0.936 | 1 | 1.14 | 1.01 | 0.898 | 0.67 | 0.732 | 0.874
14 | HCC-15 | 0.36 | 0.392 | 0.372 | 0.368 | 0.369 | 0.999 | 0.946 | 0.934 | 1.04 | 1.06 | 0.798 | 0.979 | 0.884 | 0.953 | 1.12 | 0.964 | 0.844 | 0.77 | 0.911 | 0.897
15 | NCI-H727 | 0.346 | 0.325 | 0.386 | 0.323 | 0.379 | 1.05 | 0.909 | 0.981 | 0.91 | 1.14 | 0.918 | 1.06 | 1.27 | 1.15 | 1.21 | 1.15 | 0.767 | 0.986 | 0.947 | 0.603
16 | NCI-H2009 | 0.346 | 0.299 | 0.281 | 0.182 | 0.246 | 1.08 | 0.991 | 0.989 | 0.933 | 1.01 | 1.08 | 1.04 | 0.843 | 1.01 | 0.978 | 0.754 | 0.676 | 0.374 | 0.418 | 0.963
17 | HCC-44 | 1.06 | 0.994 | 1.02 | 0.963 | 0.915 | 0.961 | 0.972 | 0.968 | 0.982 | 0.987 | 1.1 | 0.991 | 0.925 | 1.18 | 1.01 | 1.05 | 0.565 | 0.326 | 0.321 | 1.04
